# According to patent publication US10434133B2, “Inflammation-suppressing composition including peptide” (KIRIN KABUSHIKI KAISHA, priority 2015, dated 2019):
# Test system: microglia
# Assay: TNF-α production of LPS/IFN-γ-stimulated isolated microglia (Test Examples 1 to 3)
# Assay type: cell-based, mouse
# Details: peptides at 10 μM and 50 μM; FIG. 2
# Method: Microglia were isolated from the mouse brain by the magnetic cell sorting method. Specifically, the brain removed from a mouse was treated with papain to obtain a brain tissue dispersion and the enzyme reaction was stopped. Subsequently, the dispersion was reacted to CD11b antibody (manufactured by Miltenyi Biotec), a common microglia marker magnetically labelled with superparamagnetic microbeads, to carry out magnetic separation whereby microglia were isolated. The isolated microglia cell was cultured for 12 hours in medium to which the above 336 dipeptides were added in a concentration of 50 μM each. Subsequently, 5 ng/ml of lipopolysaccharide (LPS, manufactured by SIGMA-ALDRICH) and 0.5 ng/ml of IFN-γ (manufactured by R&D system) were added thereto, the cell was further cultured for 12 hours and TNF-α contained in the culture supernatant was quantitatively determined using an ELISA kit (manufactured by eBioscience). […] Note that the results are average values of three consecutive data. Additionally, hereinafter the amino acids are shown in one-letter abbreviations. […] Note that, for the control, those cultured with no addition of the peptides were used as in Test Example 1. For comparison, the dipeptides having the same amino acid composition with different sequences, that it, VD and HL were also measured for the TNF-α production at different concentrations.
substance,measurement,value
TDVE: tetrapeptide having DV as the core sequence,inflammation suppression effect against microglia (TNF-α),the most intense
